Experimental data as given in patent publication US8399214B2 (Evonik Degussa GmbH, priority 2005, dated 2013).
“And” between values parts separate entries of the source, which are not always exact repeats. Equal entries are not always repeated. Where two headings read alike, the source gives them in different places.

Assays:
[1] = system: C. glutamicum OM246C (ΔmetH, ΔmetE); format: cell-based; conditions: 24 hours at 30° C.
Description: Other possible delivery systems include synthetic oils, organic solvents, chloro-carbons, fluoro-carbons, or chloro-fluoro-carbons.

C. glutamicum M2014 = experiment: Test tube growth in methionine-free medium with Amberlite XAD4 as DMDS delivery system
Method: To this end, test tube experiments using 5 ml of medium were performed on OM63 and M2014.
To each test tube 100 μl of a sterile suspension of XAD4 in water (50% v/v) was added.

## CSSC [DMDS, dimethyl disulfide]
[1]; MF + Canola Oil + 0.2% DMDS
  Optical densities at 600 nm: 1.9 and 1.7
[1]; MF + Canola Oil + 0.4% DMDS
  Optical densities at 600 nm: 1.1 and 1.3
[1]; MF + Canola Oil + 0.8% DMDS
  Optical densities at 600 nm: 0.0
C. glutamicum M2014; M2014, DMDS 0.1%, XAD4, 24 hours at 30° C.
  Optical densities at 600 nm: 4.4 and 4.3
C. glutamicum M2014; M2014, DMDS 0.1%, XAD4, 42 hours at 30° C.
  Optical densities at 600 nm: 6.6
C. glutamicum M2014; M2014, DMDS 0.2%, XAD4, 24 hours at 30° C.
  Optical densities at 600 nm: 4.0 and 4.2
C. glutamicum M2014; M2014, DMDS 0.2%, XAD4, 42 hours at 30° C.
  Optical densities at 600 nm: 6.9
C. glutamicum M2014; M2014, DMDS 0.2%, XAD4, 60 hours at 30° C.
  OD600: 4.5 and 3.6
C. glutamicum M2014; M2014, DMDS 0.3%, XAD4, 24 hours at 30° C.
  Optical densities at 600 nm: 3.8 and 3.5
C. glutamicum M2014; M2014, DMDS 0.3%, XAD4, 42 hours at 30° C.
  Optical densities at 600 nm: 7.3
C. glutamicum M2014; M2014, DMDS 0.4%, XAD4, 24 hours at 30° C.
  Optical densities at 600 nm: 1.3 and 2.3
C. glutamicum M2014; M2014, DMDS 0.4%, XAD4, 42 hours at 30° C.
  Optical densities at 600 nm: 7.3
C. glutamicum M2014; M2014, DMDS 0.5%, XAD4, 42 hours at 30° C.
  Optical densities at 600 nm: 5.5
C. glutamicum M2014; M2014, DMDS with Amberlite XAD4
  maximum amount of DMDS that allowed cell growth: 0.4%
C. glutamicum M2014; in the presence of Amberlite XAD4 versus direct addition
  increase of the amount of DMDS that can be added before toxicity is observed: 5 fold
